The source of these data is patent US20090172831A1, “Methods for the production of plants resistant to HPPD herbicides” (Syngenta Limited, priority 2000, published 2009).

One assay concerns the target T1, Arabidopsis HPPD (Arabidopsis thaliana, UniProt P93836).
T1 construct: made in house; host or cells: E. coli BL21 (DE3) codon+ RP
T1 sequence (P93836 1-445): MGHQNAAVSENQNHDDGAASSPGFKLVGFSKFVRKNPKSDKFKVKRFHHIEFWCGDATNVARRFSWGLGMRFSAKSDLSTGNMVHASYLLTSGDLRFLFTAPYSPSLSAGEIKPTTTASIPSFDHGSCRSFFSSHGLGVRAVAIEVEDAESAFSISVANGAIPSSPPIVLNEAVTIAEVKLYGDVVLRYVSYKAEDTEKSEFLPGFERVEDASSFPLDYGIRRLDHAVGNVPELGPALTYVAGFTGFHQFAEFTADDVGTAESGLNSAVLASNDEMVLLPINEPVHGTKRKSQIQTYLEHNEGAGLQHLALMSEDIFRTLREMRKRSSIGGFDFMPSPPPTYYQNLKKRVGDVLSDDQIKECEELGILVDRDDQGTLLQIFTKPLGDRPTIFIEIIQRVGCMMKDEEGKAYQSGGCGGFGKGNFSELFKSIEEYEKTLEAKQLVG
In words: Inhibition of HPPD (E. coli extract) after pre-incubation with inhibitor. Type of assay: biochemical. As to conditions: read-out: inhibition (relative to controls). How it is done:
Qualitative measurements of the differences in Kd values in respect of different HPPD inhibitors are obtained by pre-incubating enzyme with inhibitor and, then, subsequently, measuring the % inhibition. For example HPPD is isolated from maize seedlings, part purified and assayed by similar methods to those described by Schulz et al 1993 (FEBS LETS. 318, 162-166) and by Secor (1994) in Plant Physiol. 106, 1429-1433. Assays are run for 30 minutes and started with addition of radiolabelled hydroxyphenylpyruvate (final concentration ˜0.1-0.2 mM) following a 20-30 min period over which inhibitor is pre-incubated with the part-purified enzyme.
Using the same assay method but using HPPD from Arabidopis (obtained from E. coli cells transformed to express the Arabidopsis HPPD and prepared as an E. coli extract similar to the methods described by Garcia et al in Plant Physiol (1999) 119, 1507-1516) the following levels of inhibition (relative to controls) are observed with the following doses of herbicide versus Arabidopsis HPPD.

Assay [1] deals with untransformed tobacco explants. In words: Explants on MS agar containing mesotrione, bleaching. As to conditions: MS agar + 3% sucrose. In kind it is in vivo. The text has this:
Explants (i.e. a leaf plus short segment of stem containing the auxiliary bud) are placed into MS agar (+3% sucrose) containing various concentrations of mesotrione (see above) from 0.02 to 2 ppm. In tobacco, for example, untransformed explants are fully bleached at 0.02 ppm. […] In these particular experiments, only the shoot that develops from the bud is bleached, the leaf on the explanted tissue remains green.

In assay [2] the test system is tobacco plants transformed to express wheat HPPD. In words: Tolerance of tobacco transformed with wheat HPPD to herbicides. In kind it is in vivo. As to conditions: MS agar; a number of PCR+ve transformants (0.1), a sub-set (>0.2); listed as mesotrione.
Text: These constructs were all transformed into Agrobacterium tumefaciens strain LBA4404, which in turn was used to transform tobacco, using methodology described previously.
The next assay deals with Wheat HPPD (Triticum aestivum, UniProt A0A3B6NLC6). Description: kon from HPLC enzyme assay (progressive inhibition / timed pre-reaction). Type of assay: biochemical. The settings on record: for observed first order decay rate constant: 100 μM HPP (no inhibitor: 0.016).
Chain of Wheat HPPD (A0A3B6NLC6 entry or part of it): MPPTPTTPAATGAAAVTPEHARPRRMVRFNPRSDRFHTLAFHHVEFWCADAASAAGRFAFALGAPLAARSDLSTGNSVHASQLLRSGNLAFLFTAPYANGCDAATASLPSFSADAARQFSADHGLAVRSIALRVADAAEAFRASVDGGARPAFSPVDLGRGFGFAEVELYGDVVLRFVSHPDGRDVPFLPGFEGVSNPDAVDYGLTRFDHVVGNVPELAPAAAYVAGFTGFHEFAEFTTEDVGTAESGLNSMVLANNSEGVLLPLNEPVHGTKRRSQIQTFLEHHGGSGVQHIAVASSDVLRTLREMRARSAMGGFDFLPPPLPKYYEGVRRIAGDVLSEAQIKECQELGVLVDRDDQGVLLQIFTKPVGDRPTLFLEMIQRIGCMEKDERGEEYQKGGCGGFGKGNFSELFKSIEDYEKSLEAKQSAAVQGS

SMILES strings stand for the structures. Where “and” joins values, the source holds several entries; their conditions need not be identical. Equal entries are not always repeated.

In the case of `CS(=O)(=O)c1ccc(C(=O)C2C(=O)CCCC2=O)c([N+](=O)[O-])c1` [Structure I, 2-(Nitro-4-methanesulphonylbenzoyl)-cyclohexane-1,3-dione, reference compound], at Arabidopsis HPPD (1 nM), the inhibition at 0.001 µM was found to be 42%. Also, on Arabidopsis HPPD (10 nM), the inhibition at 0.01 µM was found to be 95%. For the same compound, the inhibition at 0.1 µM on Arabidopsis HPPD (100 nM) was found to be 100%. Also, the inhibition at 1 µM at Arabidopsis HPPD (1000 nM) is 100%. The “concentration at which explants are fully bleached” value in assay [1] is on record as 0.02 ppm. Also, the “concentration tolerated with no indication of bleaching / plants looking normal” value in assay [2] is 0.1 ppm and > 0.2 ppm.
At Wheat HPPD, `Cc1nc(C(F)(F)F)ccc1C(=O)C1C(=O)C2CCC(C2)C1=O` (stereo not drawn) [Structure II] registered a kon of 48000 to 57200 M⁻¹ s⁻¹. The “observed first order decay rate constant” value was 0.029 s⁻¹ at Wheat HPPD (2.5 μM inhibitor) and 0.06 s⁻¹ on Wheat HPPD (10 μM inhibitor).

Broadly, the inhibition is the share of the control response that was lost under treatment. As a reminder, the kon is the rate constant with which the complex forms. A higher kon goes with fast association.
